Data on 35 molecules can be found in patent US8987312B2, “Alpha-keto heterocycles as FAAH inhibitors” (The Scripps Research Institute, priority 2008, dated 2015).

Where two headings read alike, the source gives them in different places.

Assay type in all cases: biochemical
Assay [1] addresses T1, purified recombinant rat FAAH (Rattus norvegicus, UniProt P97612).
T1 construct: The truncated rat FAAH (rFAAH) was expressed in E. coli and purified as described; made in house; host or cells: Escherichia coli
T1 sequence (P97612 30-579 limits assumed): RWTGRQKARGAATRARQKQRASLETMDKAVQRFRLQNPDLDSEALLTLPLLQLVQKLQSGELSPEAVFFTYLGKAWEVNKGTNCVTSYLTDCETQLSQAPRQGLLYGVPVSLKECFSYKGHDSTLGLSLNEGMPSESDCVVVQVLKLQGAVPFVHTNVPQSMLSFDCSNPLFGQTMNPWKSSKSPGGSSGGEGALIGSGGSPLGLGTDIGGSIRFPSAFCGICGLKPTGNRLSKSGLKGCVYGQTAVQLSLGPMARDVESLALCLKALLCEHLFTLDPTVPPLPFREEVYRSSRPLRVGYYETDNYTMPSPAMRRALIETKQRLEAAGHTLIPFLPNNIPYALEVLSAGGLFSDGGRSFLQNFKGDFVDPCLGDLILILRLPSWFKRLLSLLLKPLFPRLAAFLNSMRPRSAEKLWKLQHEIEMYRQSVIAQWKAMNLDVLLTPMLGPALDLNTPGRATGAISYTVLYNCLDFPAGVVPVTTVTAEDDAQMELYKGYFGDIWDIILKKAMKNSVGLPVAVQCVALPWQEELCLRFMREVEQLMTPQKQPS
Kind of assay: FAAH inhibition enzyme assay (14C-oleamide hydrolysis, Dixon plot), rat enzyme. From the text:
The purified recombinant rFAAH was used in the inhibition assays unless otherwise indicated.
The ^14C-labeled oleamide (substrate) and oleic acid (product) were extracted with EtOAc and analyzed by TLC.

Assay [2] concerns the target T2, triacylglycerol hydrolase (TGH) (Mus musculus, UniProt Q8VCT4).
T2 construct: with FP-Rh in brain and heart membrane proteome; from tissue; host or cells: brain and heart membrane proteome
T2 sequence (Q8VCT4 19-565): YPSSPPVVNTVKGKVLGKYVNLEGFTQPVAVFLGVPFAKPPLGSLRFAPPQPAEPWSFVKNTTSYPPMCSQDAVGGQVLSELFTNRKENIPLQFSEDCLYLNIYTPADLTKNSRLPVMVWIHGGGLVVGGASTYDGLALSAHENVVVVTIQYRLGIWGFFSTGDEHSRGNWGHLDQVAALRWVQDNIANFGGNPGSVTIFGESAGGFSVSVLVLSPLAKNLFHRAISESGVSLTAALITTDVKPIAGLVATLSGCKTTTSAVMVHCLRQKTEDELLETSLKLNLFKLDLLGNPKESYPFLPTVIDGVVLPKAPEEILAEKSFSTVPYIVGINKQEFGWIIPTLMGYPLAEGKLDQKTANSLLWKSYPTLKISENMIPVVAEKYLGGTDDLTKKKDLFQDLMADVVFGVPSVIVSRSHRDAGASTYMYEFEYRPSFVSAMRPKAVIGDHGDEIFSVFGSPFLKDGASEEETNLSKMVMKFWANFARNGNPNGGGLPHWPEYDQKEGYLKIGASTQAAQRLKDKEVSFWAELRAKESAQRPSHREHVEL
Nature of the assay: Activity based protein profiling (proteome-wide selectivity screening, FP-Rh), TGH. The settings on record: Table 4; for TGH selectivity (value in parentheses): ratio TGH IC50 / FAAH IC50 (fold selectivity for FAAH); for IC50: activity based protein profiling. An excerpt: (§1) Enzyme targets such as FAAH, KIAA1363, and TGH are labeled at the left margin.

The next assay has as its target T3, KIAA1363 (Mus musculus, UniProt Q8BLF1).
T3 construct: with FP-Rh in brain and heart membrane proteome; from tissue; host or cells: brain and heart membrane proteome
T3 sequence (Q8BLF1 1-408): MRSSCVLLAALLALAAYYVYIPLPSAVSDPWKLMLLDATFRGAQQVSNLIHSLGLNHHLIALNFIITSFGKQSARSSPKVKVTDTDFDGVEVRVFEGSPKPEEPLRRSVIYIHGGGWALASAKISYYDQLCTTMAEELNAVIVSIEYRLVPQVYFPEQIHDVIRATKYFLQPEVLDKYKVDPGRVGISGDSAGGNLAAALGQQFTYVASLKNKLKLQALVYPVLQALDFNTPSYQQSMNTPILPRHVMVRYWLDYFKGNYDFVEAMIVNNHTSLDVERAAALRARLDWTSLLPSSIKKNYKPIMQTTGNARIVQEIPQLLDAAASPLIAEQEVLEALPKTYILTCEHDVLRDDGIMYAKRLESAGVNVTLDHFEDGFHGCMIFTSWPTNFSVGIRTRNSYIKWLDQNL
Nature of the assay: Activity based protein profiling (proteome-wide selectivity screening, FP-Rh), KIAA1363. The settings on record: Table 4; for IC50: activity based protein profiling.
Description: as §1

[3] abbreviates: Table 2, rat FAAH, pH 9 assay conditions, read-out: Ki.
Setting [4] is: rat FAAH, pH 9 assay conditions.

On to `O=C(CCCCCCc1ccccc1)c1nnc(-c2ccco2)o1` [8c], for which, in assay [1] (setting [3]), the Ki is 0.56 nM. Besides, the “TGH selectivity (value in parentheses)” value in assay [2] is recorded as 80.

On to `O=C(CCCCCCc1ccccc1)c1nnc(-c2cccs2)o1` [8d, 7-Phenyl-1-(5-(thien-2-yl)-1,3,4-oxadiazol-2-yl)-heptan-1-one], for which the Ki in assay [1] (setting [3]) is 0.8 nM.

`O=C(CCCCCCc1ccccc1)c1nnc(-c2ccccc2)o1` [8e]: the Ki in assay [1] (setting [3]) turned out to be 2.2 nM; in assay [1] (Table 4, read-out: FAAH Ki) it was 2.2 nM. In addition, the “KIAA1363 selectivity (value in parentheses)” value at KIAA1363 (ratio KIAA1363 IC50 / FAAH IC50 (fold selectivity for FAAH)) is more than 4000. Besides, the “TGH selectivity (value in parentheses)” value in assay [2] stood at 10.

On to `COC(=O)c1nnc(C(=O)CCCCCCc2ccccc2)o1` [8h, Methyl 5-(7-Phenylheptanoyl)-1,3,4-oxadiazole-2-carboxylate], for which the IC50 against KIAA1363 is more than 100000 nM; in assay [2], 2000 nM.

As for `O=C(CCCCCCc1ccccc1)c1nc(-c2ccco2)no1` [9c, 1-(3-(Furan-2-yl)-1,2,4-oxadiazol-5-yl)-7-phenylheptan-1-one], the Ki in assay [1] (setting [3]) was determined as 1 nM.

For the molecule `O=C(CCCCCCc1ccccc1)c1nc(-c2cccs2)no1` [9d, 7-Phenyl-1-(3-(thiophen-2-yl)-1,2,4-oxadiazol-5-yl)-heptan-1-one], the Ki in assay [1] (setting [3]) turned out to be 1.6 nM.

As to `O=C(O)c1cccc(-c2noc(C(=O)CCCCCCc3ccccc3)n2)n1` [9g, 6-(5-(7-Phenylheptanoyl)-1,2,4-oxadiazol-3-yl)-picolinic Acid], the IC50 is more than 100000 nM against KIAA1363 and 40000 nM in assay [2].

For the molecule `O=C(CCCCCCc1ccccc1)c1noc(-c2ccco2)n1` [10c, 1-(5-(Furan-2-yl)-1,2,4-oxadiazol-3-yl)-7-phenylheptan-1-one], the Ki in assay [1] (setting [3]) stood at 8.5 nM.

As for `O=C(CCCCCCc1ccccc1)c1noc(-c2cccs2)n1` [10d, 7-Phenyl-1-(5-(thiophen-2-yl)-1,2,4-oxadiazol-3-yl)-heptan-1-one], the Ki in assay [1] (setting [3]) was determined as 44 nM.

In turn, `COC(=O)c1cccc(-c2nc(C(=O)CCCCCCc3ccccc3)no2)n1` [10f, Methyl 6-(3-(7-Phenylheptanoyl)-1,2,4-oxadiazol-5-yl)-picolinate] displayed an IC50 against KIAA1363 of more than 100000 nM.

As for `O=C(CCCCCCc1ccccc1)c1ncc(-c2ccccn2)s1` [11b, 7-Phenyl-1-(5-(pyridin-2-yl)-thiazol-2-yl)-heptan-1-one], the IC50 is more than 100000 nM against KIAA1363 and 8000 nM in assay [2].

For `O=C(CCCCCCc1ccccc1)c1ncc(-c2ccco2)s1` [11c, 1-(5-(Furan-2-yl)-thiazol-2-yl)-7-phenylheptan-1-one], in assay [1] (setting [3]), the Ki stood at 1500 nM.

On to `O=C(CCCCCCc1ccccc1)c1ncc(-c2cccs2)s1` [11d, 7-Phenyl-1-(5-(thiophen-2-yl)-thiazol-2-yl)-heptan-1-one], for which, in assay [1] (setting [3]), the Ki is 2000 nM.

Turning to `O=C(O)c1cccc(-c2cnc(C(=O)CCCCCCc3ccccc3)s2)n1` [11g, 6-(2-(7-Phenylheptanoyl)thiazol-5-yl)-picolinic Acid], the IC50 against KIAA1363 was more than 100000 nM; in assay [2], 30000 nM.

For the molecule `O=C(CCCCCCc1ccccc1)c1nnc(-c2ccco2)s1` [12c, 1-(5-(Furan-2-yl)-1,3,4-thiadiazol-2-yl)-7-phenylheptan-1-one], the Ki in assay [1] (setting [3]) was 7.4 nM.

On to `O=C(CCCCCCc1ccccc1)c1nnc(-c2cccs2)s1` [12d, 7-Phenyl-1-(5-(thiophen-2-yl)-1,3,4-thiadiazol-2-yl)-heptan-1-one], for which, in assay [1] (setting [3]), the Ki was determined as 27 nM.

At KIAA1363, `COC(=O)c1cccc(-c2nnc(C(=O)CCCCCCc3ccccc3)s2)n1` [12f, Methyl 6-(5-(7-Phenylheptanoyl)-1,3,4-thiadiazol-2-yl)-picolinate] displayed an IC50 of more than 100000 nM.

For the molecule `O=C(O)c1cccc(-c2nnc(C(=O)CCCCCCc3ccccc3)s2)n1` [12g, 6-(5-(7-Phenylheptanoyl)-1,3,4-thiadiazol-2-yl)-picolinic Acid], the IC50 (against KIAA1363; in assay [2]) was more than 100000 nM each time.

In the case of `COC(=O)c1nnc(C(=O)CCCCCCc2ccccc2)s1` [12h, Methyl 5-(7-Phenylheptanoyl)-1,3,4-thiadiazole-2-carboxylate], the results for the half-inhibitory concentration (IC50) (against KIAA1363; in assay [2]) were more than 100000 nM and 11000 nM, respectively.

For `O=C(CCCCCCc1ccccc1)c1ccc(-c2ccccn2)nn1` [13b, 7-Phenyl-1-(6-(pyridin-2-yl)-pyridazin-3-yl)-heptan-1-one], the IC50 (at KIAA1363; in assay [2]) was more than 100000 nM in each case.

For `O=C(CCCCCCc1ccccc1)c1ccc(-c2ccco2)nn1` [13c, 1-(6-(Furan-2-yl)-pyridazin-3-yl)-7-phenylheptan-1-one], the Ki in assay [1] (setting [3]) stood at 40 nM.

Turning to `O=C(CCCCCCc1ccccc1)c1ccc(-c2cccs2)nn1` [13d, 7-Phenyl-1-(6-(thiophen-2-yl)-pyridazin-3-yl)-heptan-1-one], in assay [1] (setting [3]), the Ki was determined as 46 nM.

In the case of `O=C(O)c1cccc(-c2ccc(C(=O)CCCCCCc3ccccc3)nn2)n1` [13g, 6-(6-(7-Phenylheptanoyl)-pyridazin-3-yl)-picolinic Acid], the IC50 (on KIAA1363; in assay [2]) was more than 100000 nM in each case.

As to `O=C(CCCCCCc1ccccc1)c1nnc[nH]1` [14a, 7-Phenyl-1-(4H-1,2,4-triazol-3-yl)-heptan-1-one], in assay [1] (setting [3]), the Ki is more than 1000 nM.

In the case of `O=C(CCCCCCc1ccccc1)c1nnc(-c2ccccn2)[nH]1` [14b, 7-Phenyl-1-(5-(pyridin-2-yl)-4H-1,2,4-triazol-3-yl)-heptan-1-one], the Ki in assay [1] (setting [3]) was more than 100000 nM.

As for `O=C(CCCCCCc1ccccc1)c1nnc(-c2ccco2)[nH]1` [14c, 1-(5-(Furan-2-yl)-4H-1,2,4-triazol-3-yl)-7-phenylheptan-1-one], in assay [1] (setting [3]), the Ki is more than 1000 nM.

`O=C(CCCCCCc1ccccc1)c1nnc(-c2cccs2)[nH]1` [14d, 7-Phenyl-1-(5-(thiophen-2-yl)-4H-1,2,4-triazol-3-yl)-heptan-1-one]: the Ki in assay [1] (setting [3]) was more than 1000 nM.

On to `COC(=O)c1nnc(C(=O)CCCCCCc2ccccc2)[nH]1` [14h, Methyl 5-(7-Phenylheptanoyl)-4H-1,2,4-triazole-3-carboxylate], for which the “FAAH inhibition (in words)” value in assay [1] (setting [4]) is “inactive”.

Consider `O=C(CCCCCCc1ccccc1)c1nnn(-c2ccco2)n1` [15c, 1-(2-(Furan-2-yl)-2H-tetrazol-5-yl)-7-phenylheptan-1-one], for which the Ki in assay [1] (setting [3]) turned out to be 5 nM.

For `O=C(CCCCCCc1ccccc1)c1nnn(-c2cccs2)n1` [15d, 7-Phenyl-1-(2-(thiophen-2-yl)-2H-tetrazol-5-yl)-heptan-1-one], in assay [1] (setting [3]), the Ki was 8.5 nM.

Regarding `O=C(CCCCCCc1ccccc1)c1nnn(-c2ccccc2)n1` [15e, 7-Phenyl-1-(2-phenyl-2H-tetrazol-5-yl)-heptan-1-one], the Ki in assay [1] (setting [3]) worked out at 16 nM.

Consider `Cn1nnc(C(=O)CCCCCCc2ccccc2)n1` [19a, 1-(2-Methyl-2H-tetrazol-5-yl)-7-phenylheptan-1-one], for which, in assay [1] (setting [4]), the “FAAH inhibition (in words)” value is reported as “displayed FAAH inhibition at levels consistent with related compounds”.

Regarding `Cn1nnnc1C(=O)CCCCCCc1ccccc1` [19b, 1-(1-Methyl-1H-tetrazol-5-yl)-7-phenylheptan-1-one], the “FAAH inhibition (in words)” value in assay [1] (setting [4]) was “displayed FAAH inhibition at levels consistent with related compounds”.

Molecule `O=C(CCCCCCc1ccccc1)c1ncc(-c2ccccn2)o1` [compound 2, reference compound] yielded an IC50 in assay [2] of 600 nM.

As to `O=C(CCCCCCc1ccccc1)c1cnc(-c2ccccn2)o1` [compound 6, 7-Phenyl-1-(2-(pyridin-2-yl)oxazol-5-yl)-heptan-1-one], the “loss of FAAH inhibition” value in assay [1] (with respect to oxazole 2) is more than 4000 fold.
